Results: patent publication US6329497A, “Sandramycin analogs” (The Scripps Research Institute, priority 1999, dated 2001)
Entries after “also recorded” stand apart in the source; their conditions may differ.

How the values were obtained:
[1] = system: two single mutant and one double mutant of HIV-1 reverse transcriptase; conditions: cited from earlier work
[2] = biological target: HIV-1 reverse transcriptase (Human immunodeficiency virus type 1 group M subtype B, UniProt P04585); assay: Inhibition of HIV-1 reverse transcriptase; type: biochemical
Experimental: The assay was performed according to an available procedure (Goldman, M. E.; Salituro, G. S.; Bowen, J. A.; Williamson, J. M.; Zink, D. L.; Schleif, W. A.; Emini, E. A. Mol. Pharmacol. 1990, 38, 20) with slight modification. A 45 L solution of reaction buffer containing 55 mM Tris·HCl, pH 8.2, 80 mM potassium chloride, 12 mM MgCl2, 1 mM DTT, 50 M EGTA, 2.5 g/mL rA·dT, 0.5 Ci of [^3 H]TTP, 10 M TTP, 1 mg/mL BSA, and 0.01% Triton X-100 was added to a well in a filter cluster plate (Millipore MAHV N45). The reverse transcription reaction was initiated upon addition of the reverse transcriptase (1 unit; 1 unit=10 pmol of [^3 H]TMP incorporated/60 min at 37° C.). The plate was incubated at 37° C. for 90 min. The plate was then placed on ice and 200 µL of 13% trichloroacetic acid and 10 mM sodium pyrophosphate was added to each well. The plate was chilled for 2 h and the liquid vacuumed out through the filter using a Millipore manifold (Millipore MAVM 09601). The precipitate was washed with 1 M and 10 mM sodium pyrophosphate twice. The filter was punched out and placed in a scintillation vial. 4 mL of cocktail was added. Radioactivity was determined by liquid scintillation counting.
The effects of sandramycin and its analogs on HIV-1 reverse transcriptase were determined by incubating the agents and the rA·dT containing buffer at 25° C. for 30 min prior to addition of the reverse transcriptase. Reactions containing no agents were used as controls, and those lacking the transcriptase were used as blanks.

leukemia cell lines = conditions: typical
[3] = system: melanomas, carcinomas, and adenocarcinomas; assay: In vitro cytotoxic activity of 4 against tumor cell lines; type: cell-based
L1210 cell line = assay: In vitro cytotoxic activity, L1210; type: cell-based
HL-60 = assay: In vitro cytotoxic activity, HL-60; type: cell-based
5'-d(GCCGGC)2 = assay: Sandramycin binding to deoxyoligonucleotides, fluorescence quenching, 5'-d(GCCGGC)2
Experimental: (§1) Apparent absolute DNA binding constants for 1-22 and related agents including luzopeptin A were obtained by measurement of the fluorescence quenching upon titration addition of calf thymus DNA or the deoxyoligonucleotides 5'-d(GCXXGC)2 where XX=AT, TA, GC, and CG. For each agent, the characteristic fluorescence excitation and emission spectra were recorded in 10 mM Tris-HCl, 75 mM NaCl (pH 7.4) buffer, FIG. 6. For the DNA binding assays which quantitate the fluorescence quenching, excitation outside the absorbance range of DNA was employed and the most intense fluorescence emission at a longer wavelength monitored. For assay of the DNA-induced fluorescence quenching of the agents, a 2 mL buffer solution of Tris-HCl (pH 7.4) and 75 mM NaCl was employed. For titration, small aliquots of DNA were added to solutions of the agents in Tris-HCl buffer (pH 7.4).
(§2) A pronounced downward curvature in an infinite lattice such as calf thymus DNA is recognized to arise in part from neighbor exclusion where the binding of an agent excludes the subsequent binding at nearby sites. […]
(§3) After 5 min of stirring, an initial fluorescence reading was taken with minimum exposure to the excitation beam. […] The results of the titration were analyzed by Scatchard analysis. […]

5'-d(GCTAGC)2 = assay: Sandramycin binding to deoxyoligonucleotides, fluorescence quenching, 5'-d(GCTAGC)2
Experimental: as §1, §2, §3

5'-d(GCGCGC)2 = assay: Sandramycin binding to deoxyoligonucleotides, fluorescence quenching, 5'-d(GCGCGC)2
Experimental: as §1, §2, §3

| Compound | relative effectiveness against mutants versus HIV-1 reverse transcriptase [1] | HIV-1 reverse transcriptase inhibition, in words [2] | fold less potent than sandramycin [2] | fold less potent than sandramycin (luzopeptin A or sandramycin) (leukemia cell lines) | rank order of cytotoxic potency ([3]; carcinomas and adenocarcinomas) | rank order of cytotoxic potency ([3]; melanomas) | fold more potent than sandramycin (luzopeptin A or sandramycin) ([3]; melanomas, carcinomas, adenocarcinomas) | cytotoxic potency, fold less potent than 1 (L1210 cell line) | cytotoxic potency, in words (HL-60) | IC50 ([2]; range given for both agents) [nM] | G° relative to 5'-d(GCATGC)2 (5'-d(GCCGGC)2) [kcal/mol] | G° relative to 5'-d(GCATGC)2 (5'-d(GCTAGC)2) [kcal/mol] | G° relative to 5'-d(GCATGC)2 (5'-d(GCGCGC)2) [kcal/mol] |
| --- | --- | --- | --- | --- | --- | --- | --- | --- | --- | --- | --- | --- | --- |
| COc1ccc2nc(C(=O)N[C@@H]3COC(=O)[C@H](C(C)(C)O)N(C)C(=O)CN(C)C(=O)CNC(=O)[C@@H]4[C@@H](OC(=O)[C@@H]5C[C@H]5C)CC=NN4C(=O)[C@H](NC(=O)c4cnc5cc(OC)ccc5n4)COC(=O)[C@H](C(C)(C)O)N(C)C(=O)CN(C)C(=O)CNC(=O)[C@@H]4C(OC(=O)[C@@H]5C[C@H]5C)CC=NN4C3=O)cnc2c1 (some centres unmarked) [quinoxapeptin A] | 1-3 | – | – | – | – | – | – | – | – | – | – | – | – |
| CC(C)[C@H]1C(=O)OC[C@@H](NC(=O)c2ccc3ccccc3n2)C(=O)N2CCCC[C@H]2C(=O)NCC(=O)N(C)CC(=O)N(C)[C@@H](C(C)C)C(=O)OC[C@@H](NC(=O)c2ccc3ccccc3n2)C(=O)N2CCCC[C@H]2C(=O)NCC(=O)N(C)CC(=O)N1C [compound 4, (N-(Quinol-inyl-2-carbonyl)-D-Ser-Pip-Gly-Sar-NMe-Val)2 (Serine Hydroxyl) Dilactone] | – | Comparable but slightly less potent inhibition | 3 | 4-10 | 4>luzopeptin A>sandramycin (1) | 4=luzopeptin A>sandramycin (1) | 1-10,000 | 10 | exceptionally potent; also recorded: unusually potent | – | – | – | – |
| CC(C)[C@H]1C(=O)OC[C@H](NC(=O)c2nc3ccccc3cc2O)C(=O)N2CCCC[C@@H]2C(=O)NCC(=O)N(C)CC(=O)N(C)[C@H](C(C)C)C(=O)OC[C@@H](NC(=O)c2nc3ccccc3cc2O)C(=O)N2CCCC[C@@H]2C(=O)NCC(=O)N(C)CC(=O)N1C [compound 1, Sandramycin] | – | slightly more effective than luzopeptin A | – | – | – | – | – | – | – | 130 to 190 | 0.6 | 0.6 | 0.3 |
